# In EP2818472A1, “Imidazo[4,5-c]pyridine and pyrrolo[3,2-c]pyridine compounds as G-protein-coupled receptor kinase 5 (GRK5) modulators” (Max-Planck-Gesellschaft zur Förderung der Wissenschaften …, priority 2013, dated 2014):
# Tested on: beta-TC6 cells
# Test: Insulin HTRF assay (relative activity Ar) in beta-TC6 cells
# Type: cell-based, mouse
# Conditions: Mus musculus, Beta-TC6, 4 h, insulin HTRF, supernatant of beta-TC6 cells, incubation with test compound at 37°C for 2, 3, 4h; read-out: Ar (relative activity)
# Summary of the method: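 beta-TC6 cells (15k/well, seeded 24 or 48 h) washed, then exposed to compound in induction buffer (0.5% DMSO final) for 2, 3 or 4 h at 37°C.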
row,SMILES,Emax [%]
1,"CN(C)C(=O)c1ccc(Nc2cc3c(cn2)nc(NCc2ccccc2)n3C)cc1 [Compound 626, 4-[[2-(benzylamino)-1-methyl-imidazo[4,5-c]pyridin-6-yl]amino]-N,N-dimethyl-benzamide]",30 to 50
2,"CC(=O)Nc1cccc(Nc2cc3c(cn2)nc(NCc2ccccc2)n3C)c1 [Compound 627, N-[3-[[2-(benzylamino)-1-methyl-imidazo[4,5-c]pyridin-6-yl]amino]phenyl]acetamide]",50 to 100
3,"CC(=O)c1cccc(Nc2cc3c(cn2)nc(NCc2ccccc2)n3C)c1 [Compound 628, 1-[3-[[2-(benzylamino)-1-methyl-imidazo[4,5-c]pyridin-6-yl]amino]phenyl]ethanone]",30 to 50
4,"Cn1c(NCc2ccccc2)nc2cnc(Nc3cccc(F)c3)cc21 [Compound 629, N2-benzyl-N6-(3-fluorophenyl)-1-methyl-imidazo[4,5-c]pyridine-2,6-diamine]",30 to 50
5,"Cn1c(Nc2ccccc2)nc2cnc(-c3ccc(N4CCOCC4)cc3)cc21 [Compound 630, 1-methyl-6-(4-morpholinophenyl)-N-phenyl-imidazo[4,5-c]pyridin-2-amine]",50 to 100
6,"CN(C)c1ccc(-c2cc3c(cn2)nc(Nc2ccccc2)n3C)cc1 [Compound 631, 6-(4-dimethylaminophenyl)-1-methyl-N-phenyl-imidazo[4,5-c]pyridin-2-amine]",> 100
7,"COc1ccc(Nc2cc3c(cn2)nc(Nc2ccccc2)n3C)cc1OC [Compound 632, N6-(3,4-dimethoxyphenyl)-1-methyl-N2-phenyl-imidazo[4,5-c]pyridine-2,6-diamine]",50 to 100
8,"Cn1c(Nc2ccccc2)nc2cnc(Nc3cccnc3)cc21 [Compound 633, 1-methyl-N2-phenyl-N6-(3-pyridyl)imidazo[4,5-c]pyridine-2,6-diamine]",50 to 100
9,"Cn1c(Nc2ccccc2)nc2cnc(Nc3ccccc3)cc21 [Compound 634, 1-methyl-N2,N6-diphenyl-imidazo[4,5-c]pyridine-2,6-diamine]",50 to 100
10,"Cn1c(Nc2ccccc2)nc2cnc(-c3cccc4ccccc34)cc21 [Compound 635, 1-methyl-6-(1-naphthyl)-N-phenyl-imidazo[4,5-c]pyridin-2-amine]",30 to 50
11,"Cn1c(Nc2ccccc2)nc2cnc(Nc3ccncc3)cc21 [Compound 636, 1-methyl-N2-phenyl-N6-(4-pyridyl)imidazo[4,5-c]pyridine-2,6-diamine]",50 to 100
12,"Cn1c(Nc2ccccc2)nc2cnc(Nc3ccccn3)cc21 [Compound 637, 1-methyl-N2-phenyl-N6-(2-pyridyl)imidazo[4,5-c]pyridine-2,6-diamine]",30 to 50
13,"Cn1c(Nc2ccccc2)nc2cnc(Nc3cccc(O)c3)cc21 [Compound 638, 3-[(2-anilino-1-methyl-imidazo[4,5-c]pyridin-6-yl)amino]phenol]",50 to 100
14,"Cn1c(Nc2ccccc2)nc2cnc(Nc3ccc(S(C)(=O)=O)cc3)cc21 [Compound 639, 1-methyl-N6-(4-methylsulfonylphenyl)-N2-phenyl-imidazo[4,5-c]pyridine-2,6-diamine]",50 to 100
15,"Cn1c(NCC2CCCO2)nc2cnc(-c3ccc(N4CCOCC4)cc3)cc21 (centres unmarked) [Compound 640, 1-methyl-6-(4-morpholinophenyl)-N-(tetrahydrofuran-2-ylmethyl)imidazo[4,5-c]pyridin-2-amine]",30 to 50
16,"COc1cc(Nc2cc3c(cn2)nc(NCC2CCCO2)n3C)cc(OC)c1OC (centres unmarked) [Compound 641, 1-methyl-N2-(tetrahydrofuran-2-ylmethyl)-N6-(3,4,5-trimethoxyphenyl)imidazo[4,5-c]pyridine-2,6-diamine]",30 to 50
17,"Cn1c(NCC2CCCO2)nc2cnc(Nc3cccc(Cl)c3)cc21 (centres unmarked) [Compound 642, N6-(3-chlorophenyl)-1-methyl-N2-(tetrahydrofuran-2-ylmethyl)imidazo[4,5-c]pyridine-2,6-diamine]",50 to 100
18,"Cn1c(NCC2CCCO2)nc2cnc(Nc3ccc(F)c(Cl)c3)cc21 (centres unmarked) [Compound 643, N6-(3-chloro-4-fluoro-phenyl)-1-methyl-N2-(tetrahydrofuran-2-ylmethyl)imidazo[4,5-c]pyridine-2,6-diamine]",30 to 50
19,"COc1ncccc1-c1cc2c(cn1)nc(NCC1CCCO1)n2C (centres unmarked) [Compound 644, 6-(2-methoxy-3-pyridyl)-1-methyl-N-(tetrahydrofuran-2-ylmethyl)imidazo[4,5-c]pyridin-2-amine]",50 to 100
20,"COCCNc1nc2cnc(Nc3cc(OC)c(OC)c(OC)c3)cc2n1C [Compound 645, N2-(2-methoxyethyl)-1-methyl-N6-(3,4,5-trimethoxyphenyl)imidazo[4,5-c]pyridine-2,6-diamine]",30 to 50
21,"COCCNc1nc2cnc(Nc3ccc(NC(C)=O)cc3)cc2n1C [Compound 646, N-[4-[[2-(2-methoxyethylamino)-1-methyl-imidazo[4,5-c]pyridin-6-yl]amino]phenyl]acetamide]",50 to 100

row,SMILES,Emax [%]
1,"COCCNc1nc2cnc(-c3cccc(N(C)C)c3)cc2n1C [Compound 647, 6-[3-(dimethylamino)phenyl]-N-(2-methoxyethyl)-1-methyl-imidazo[4,5-c]pyridin-2-amine]",50 to 100
2,"COCCNc1nc2cnc(-c3ccc(S(C)(=O)=O)cc3)cc2n1C [Compound 648, N-(2-methoxyethyl)-1-methyl-6-(4-methylsulfonylphenyl)imidazo[4,5-c]pyridin-2-amine]",30 to 50
3,"COCCNc1nc2cnc(Nc3ccc(C(=O)OC)cc3)cc2n1C [Compound 649, methyl 4-[[2-(2-methoxyethylamino)-1-methyl-imidazo[4,5-c]pyridin-6-yl]amino]benzoate]",50 to 100
4,"COCCNc1nc2cnc(-c3cnn(C)c3)cc2n1C [Compound 651, N-(2-methoxyethyl)-1-methyl-6-(1-methylpyrazol-4-yl)imidazo[4,5-c]pyridin-2-amine]",50 to 100
5,"CNC(=O)c1cccc(-c2cc3c(cn2)nc(NCCOC)n3C)c1 [Compound 652, 3-[2-(2-methoxyethylamino)-1-methyl-imidazo[4,5-c]pyridin-6-yl]-N-methyl-benzamide]",50 to 100
6,"Cn1c(NCc2ccccc2F)nc2cnc(-c3ccc(N4CCOCC4)cc3)cc21 [Compound 653, N-[(2-fluorophenyl)methyl]-1-methyl-6-(4-morpholinophenyl)imidazo[4,5-c]pyridin-2-amine]",50 to 100
7,"Cn1c(NCc2ccccc2F)nc2cnc(-c3ccc(CO)cc3)cc21 [Compound 655, [4-[2-[(2-fluorophenyl)methylamino]-1-methyl-imidazo[4,5-c]pyridin-6-yl]phenyl]methanol]",50 to 100
8,"COc1cc(-c2cc3c(cn2)nc(NCc2ccccc2F)n3C)ccc1O [Compound 656, 4-[2-[(2-fluorophenyl)methylamino]-1-methyl-imidazo[4,5-c]pyridin-6-yl]-2-methoxy-phenol]",30 to 50
9,"Cn1c(NCc2ccccc2F)nc2cnc(-c3ccc(F)cc3)cc21 [Compound 657, 6-(4-fluorophenyl)-N-[(2-fluorophenyl)methyl]-1-methyl-imidazo[4,5-c]pyridin-2-amine]",30 to 50
10,"Cn1c(NCc2ccccc2F)nc2cnc(-c3cccs3)cc21 [Compound 658, N-[(2-fluorophenyl)methyl]-1-methyl-6-(2-thienyl)imidazo[4,5-c]pyridin-2-amine]",50 to 100
11,"CNc1nc2cnc(-c3cccc(N)c3)cc2n1Cc1ccc(OC)c(OC)c1 [Compound 659, 6-(3-aminophenyl)-1-[(3,4-dimethoxyphenyl)methyl]-N-methyl-imidazo[4,5-c]pyridin-2-amine]",30 to 50
12,"CNc1nc2cnc(Nc3cc(OC)c(OC)c(OC)c3)cc2n1Cc1ccc(OC)c(OC)c1 [Compound 660, 1-[(3,4-dimethoxyphenyl)methyl]-N2-methyl-N6-(3,4,5-trimethoxyphenyl)imidazo[4,5-c]pyridine-2,6-diamine]",50 to 100
13,"CNc1nc2cnc(Nc3ccc(NC(C)=O)cc3)cc2n1Cc1ccc(OC)c(OC)c1 [Compound 661, N-[4-[[1-[(3,4-dimethoxyphenyl)methyl]-2-(methylamino)imidazo[4,5-c]pyridin-6-yl]amino]phenyl]acetamide]",50 to 100
14,"CNc1nc2cnc(Nc3cccc(OC)c3)cc2n1Cc1ccc(OC)c(OC)c1 [Compound 662, 1-[(3,4-dimethoxyphenyl)methyl]-N6-(3-methoxyphenyl)-N2-methyl-imidazo[4,5-c]pyridine-2,6-diamine]",50 to 100
15,"CNc1nc2cnc(Nc3ccc(O)cc3)cc2n1Cc1ccc(OC)c(OC)c1 [Compound 663, 4-[[1-[(3,4-dimethoxyphenyl)methyl]-2-(methylamino)imidazo[4,5-c]pyridin-6-yl]amino]phenol]",50 to 100
16,"CNc1nc2cnc(Nc3ccc(C(N)=O)cc3)cc2n1Cc1ccc(OC)c(OC)c1 [Compound 664, 4-[[1-[(3,4-dimethoxyphenyl)methyl]-2-(methylamino)imidazo[4,5-c]pyridin-6-yl]amino]benzamide]",50 to 100
17,"CNc1nc2cnc(Nc3ccc(OC)c(OC)c3)cc2n1Cc1ccc(OC)c(OC)c1 [Compound 665, N6-(3,4-dimethoxyphenyl)-1-[(3,4-dimethoxyphenyl)methyl]-N2-methyl-imidazo[4,5-c]pyridine-2,6-diamine]",50 to 100
18,"CNc1nc2cnc(Nc3cccc(Cl)c3)cc2n1Cc1ccc(OC)c(OC)c1 [Compound 666, N6-(3-chlorophenyl)-1-[(3,4-dimethoxyphenyl)methyl]-N2-methyl-imidazo[4,5-c]pyridine-2,6-diamine]",30 to 50
19,"CNc1nc2cnc(Nc3ccccc3)cc2n1Cc1ccc(OC)c(OC)c1 [Compound 667, 1-[(3,4-dimethoxyphenyl)methyl]-N2-methyl-N6-phenyl-imidazo[4,5-c]pyridine-2,6-diamine]",30 to 50
20,"CNc1nc2cnc(-c3ccc4ccccc4c3)cc2n1Cc1ccc(OC)c(OC)c1 [Compound 668, 1-[(3,4-dimethoxyphenyl)methyl]-N-methyl-6-(2-naphthyl)imidazo[4,5-c]pyridin-2-amine]",50 to 100
